Assays:
ADAM10 = target: T1, ADAM10 (Mus musculus, UniProt O35598); experiment: Western blot of Trop-2 processing after ADAM10 inhibition or silencing in MTE 4-14/Trop-2 transfectants; format: cell-based, murine; conditions: for concentration found effective (up to): inhibition of Trop-2 cleavage in cells
T1 construct: endogenous in cells; host or cells: MTE 4-14 cells (transformed thymus cells) transfected with Trop-2
T1 sequence (O35598 215-749): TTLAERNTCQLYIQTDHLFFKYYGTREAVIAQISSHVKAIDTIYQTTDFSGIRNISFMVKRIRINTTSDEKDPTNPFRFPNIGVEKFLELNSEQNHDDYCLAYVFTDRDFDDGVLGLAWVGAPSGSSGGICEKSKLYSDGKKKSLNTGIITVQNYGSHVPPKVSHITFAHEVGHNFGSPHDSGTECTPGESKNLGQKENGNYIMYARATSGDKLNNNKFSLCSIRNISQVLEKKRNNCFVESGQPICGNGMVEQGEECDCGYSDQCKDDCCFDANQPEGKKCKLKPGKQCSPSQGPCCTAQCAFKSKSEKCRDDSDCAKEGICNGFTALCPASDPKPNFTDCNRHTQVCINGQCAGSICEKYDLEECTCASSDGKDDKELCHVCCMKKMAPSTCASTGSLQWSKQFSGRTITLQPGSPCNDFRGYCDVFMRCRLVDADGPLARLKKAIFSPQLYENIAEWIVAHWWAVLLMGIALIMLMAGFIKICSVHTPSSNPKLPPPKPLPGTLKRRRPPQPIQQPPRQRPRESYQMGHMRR
Procedure: ADAM 10 activity was inhibited in the MTE 4-14/Trop-2 transfectants by treatment with chemical inhibitors or mRNA silencing, and the effect on Trop-2 processing and on Trop-2-dependent cell growth was evaluated.
A. WB analysis following treatment with the broad-spectrum metalloprotease inhibitor GM6001 or with the specific ADAM10 inhibitor G1254023X (Ludwig, Hundhausen et al. 2005) or ADAM10 siRNA silencing, as indicated. […] T2-p: processed Trop-2; na: native form; pr processed form.
Western blotting was performed as described (El Sewedy, Fomaro et al. 1998). Tumors from experimental animals were rapidly frozen upon surgical removal and stored at −80° C. Frozen samples were quickly thawed and homogenized with a Dounce homogenizer. Cleared homogenates of tumors and cultured cell lysates were analyzed by SDS-PAGE and transferred to nitrocellulose filters. Filters were hybridized with anti-human Trop-2 (affinity-purified polyclonal rabbit antiserum) or anti-ADAM10 antibodies.
Cells were treated with ADAM10 inhibitors for 24 hours at the minimum concentration found to be effective in inhibiting Trop-2 cleavage, then assayed as indicated. The GM6001 metalloprotease family inhibitor (Calbiochem) was dissolved in DMSO and used at 6.5-13 μM for 24 hours; up to 50 μM GM6001 were found effective. The G1254023X selective ADAM10 inhibitor, dissolved in DMSO, was kindly provided by Dr. A. Ludwig. Cells received two doses (10 μM) every 24 hours for 48 hours; up to 20 μM G1254023X were found effective. Control cells received vehicle alone.
(§1) Complementary strategies were utilized for siRNA design. Briefly, Tuschl' criteria were applied, i.e. position in the mRNA, GC content, base composition and flanking sequences (Elbashir, Harborth et al. 2001). Invitrogen (maidesigner.invitrogen.com/maiexpress/) provides a proprietary algorithm that performs a statistical analysis of the target sequence, based on sequence composition, nucleotide content and thermodynamic properties, and compares candidates with validated siRNA sequences. The Whitehead Institute web site (jura.wi.mit.edu/bioc/siRNAext/) combines Tuschl' criteria with predictions of binding energies for both sense and antisense siRNAs and with BLAST filtering of cross-hybridizing sequences (Semizarov, Frost et al. 2003). […] Annealed oligos were subcloned into the pSUPER vector, kindly provided by Dr. R. Bemard (Brummelkamp, Bemards et al. 2002), under the control of the RNA polymerase Ill H1 gene promoter. siRNA expression constructs were transiently transfected MTE 4-14 transfectants, and cell growth was measured. siRNA-targeted transcript levels were quantified by real-time PCR. […]

[1] = system: metastatic triple-negative breast cancer (TNBC); conditions: cited from earlier work
MTE 4-14 cells = experiment: In vitro cell growth of MTE 4-14 transfectants after siRNA-mediated inhibition; format: cell-based, murine
Procedure: C. In vitro growth curves of MTE 4-14 cells transfected with the empty vector, wtTrop-2 or R87A-T88A Trop-2 upon ADAM10 (upper graphs, black,), MMP9 (lower graphs, black,) or control (human CD133, gray), siRNA-mediated inhibition. Bars: SEM. The p value for the only significant difference (ANOVA analysis) is indicated. Stars indicate post-hoc Bonferroni's t test p values (*≤0.05, ***≤0.001).
Cell transfectants were seeded at 1.5-3.0×10^3 cells/well in 96-well plates (five replica wells per data point). Cell numbers were quantified by staining with crystal violet (Orsulic, Li et al. 2002).
Cell numbers were normalized against a standard reference curve of two-fold serially diluted cell samples.
as §1

Molecule: CNC(=O)[C@H](Cc1c[nH]c2ccccc12)NC(=O)[C@@H](CC(=O)NO)CC(C)C [GM6001]
- concentration found effective (up to) (ADAM10): up to 50 μM

Molecule: Sacituzumab govitecan-hziy
- efficacy in patients [1]: effective in patients with metastatic triple-negative breast cancer (TNBC)

Molecule: CNC(=O)[C@@H](NC(=O)[C@H](CCCc1ccccc1)[C@H](C)N(O)C=O)C(C)(C)C [G1254023X]
- minimum concentration found to be effective in inhibiting Trop-2 cleavage (ADAM10; concentration used on cells, GM6001 for 24 hours, G1254023X two doses every 24 hours for 48 hours): 10 µM
- concentration found effective (up to) (ADAM10): up to 20 μM

B1: ADAM10 siRNA: siRNA targeting murine ADAM10 (NM_007399.3, nt 292-309), SEQ ID NO: 57-58, in pSUPER vector (nucleic acid, listed as Mus musculus)
sense: GATCCCCAGACATTATGAAGGATTATTTCAAGAGAATAATCCTTCATAATGTCTTTTTTGGAAA
antisense: AGCTTTTCCAAAAAAGACATTATGAAGGATTATTCTCTTGAAATAATCCTTCATAATGTCTGGG
- ADAM10 band in WB after siRNA treatment (ADAM10; MTE 4-14/Trop-2 transfectants): disappearance of the corresponding band
- effect on growth of R87A-T88A or empty vector transfectants (MTE 4-14 cells; MTE 4-14 cells transfected with R87A-T88A Trop-2 or empty vector): no effect
- effect on Trop-2 dependent growth in wtTrop-2 transfectants (MTE 4-14 cells; MTE 4-14 cells transfected with wtTrop-2, in vitro proliferation): overrides Trop-2 dependent growth stimulus

B2: siRNAs targeting MMP9: control siRNA targeting murine MMP9 (NM_013599, nt 1780-1798), SEQ ID NO: 59-60 (nucleic acid, listed as Mus musculus)
sense: GATCCCCCCGCAGACCAAGAGGGTTTTTCAAGAGAAAACCCTCTTGGTCTGCGGTTTTTGGAAA
antisense: AGCTTTTCCAAAAACCGCAGACCAAGAGGGTTTTCTCTTGAAAAACCCTCTTGGTCTGCGGGGG
- effect on cell proliferation (MTE 4-14 cells; control siRNA, MTE 4-14 transfectants): no effect on cell proliferation

Reference: US20240400712A1, “A PLATFORM TO OBTAIN MONOCLONAL ANTIBODIES DIRECTED AGAINST PROCESSED TUMOR-SPECIFIC ANTIGENS” (MEDITERRANEA THERANOSTIC SRL, priority 2020, published 2024)
